Starred links: 1 amine or outer side, 2 acyl side, 3 side chain; linkers in the order of their positions; H or OH if unused. Residues, ends and D or L forms follow the SMILES beside them. Groups on a side chain read outwards from the residue. *: point of attachment. Glutaryl = O=C(CCCC(=O)[*:2])[*:1]; X1 = CCCC/C=C\CCCCCCCC=NN*; NHNH2 = NN*
Columns and labels:
Format in all cases: cell-based
[1] = system: chicken embryo fibroblasts (CEF); assay: EGFP pDNA transfection in primary chicken embryo fibroblasts
Excerpt: FIG. 5 EGFP pDNA transfection efficacy (% GFP-positive cells) with amphiphile comprising 7.3(Leu-His) peptide and myristoleyl aldehyde (7.3(L-H) M) at different concentrations, compared with Lipofectamine 2000 (LF) and TransIT-LT1 Transfection Reagent (Mirus) in CEF (chicken embryo fibroblasts).
The amphiphile obtained by combining the peptide 7.3(Leu-His) with myristoleyl aldehyde (7.3(Leu-His) M) was used to deliver EGFP pDNA in primary chicken embryo fibroblasts (CEF, obtained from 9-10 day-old chicken embryos), which are non-immortal cells difficult to transfect. The transfection efficiency of amphiphile 7.3(Leu-His) M was compared to that of Lipofectamine® 2000 (LF) and TransIT-LT1 Transfection Reagent (Mirus).

HCT116 cells = assay: EGFP mRNA delivery, robotic library screening, HCT116
Protocol: Cells were seeded in a 96 well plate the day before the experiment at a concentration of 50,000 cell/mL (100 μL/w) in DMEM+10% FBS+1% Gln-Abt. For robotic library screening, the delivery of EGFP-mRNA (from TriLink, fully substituted with 5-methoxyuridine, capped and polyadenylated; TriLink, CleanCap® EGFP mRNA (5moU), ref. L-7201) in six different cell lines was performed. Amphiphilic molecule stock solutions were prepared in DMSO as described above and diluted in DMEM to afford a range of concentrations. The solutions of EGFP-mRNA/amphiphilic molecule complexes were freshly prepared prior to the transfection experiments. 35 μL of the corresponding amphiphile were added to 10 μL of a solution of EGFP-mRNA at 10 ng/μL in DMEM. The mixture was shaken for 30 min at room temperature before the addition to the cells. The cell medium was aspirated, and cells were washed with PBS twice. Cells were covered with 39 μL of DMEM and 11 μL of the complex's solution were added to the cells and incubated for 4 h (final concentration of peptide=2.5, 5 and 10 μM; final concentration of EGFP-mRNA=25 ng/well). After the incubation, the medium was replaced by 100 μL of fresh DMEM supplemented with 10% FBS. The total EGFP fluorescence was quantified after 72 h in a well plate reader. Amphiphile transfection efficiency was compared and normalized to Lipofectamine® MessengerMax efficiency (value of 1 in Tables 1-5 and 7; double underlined numbers). All experiments were done in triplicate.
Tables 1-7: RLuc (pDNA) or EGFP (mRNA) expression levels were normalized to Lipofectamine reagents (value=1) and expressed as fold-times signal increase. In the case of siRNA, the siRNA treated cells fluorescence was compared with siMOCK control fluorescence, while Cas9-RNP mediated knockout was measured against the fluorescence of untreated cells. In both siRNA and Cas9-RNP, values are expressed as % fluorescence reduction. Amphiphile concentration was 5 μM in all cases. All experiments were performed in triplicate.
Tables 14-19 show the mean (triplicates) fluorescence intensity measured after the transfection of EGFP mRNA by different amphiphiles at different concentrations in a variety of cell lines. Background fluorescence values, accounted by untreated control cells, were subtracted for processing.

[2] = system: HepG2 cells expressing EGFP; assay: Cas9-RNP delivery against EGFP (gene editing, plate reader), HepG2
Protocol: To generate an EGFP expressing HeLa cell line, HeLa cells were transfected with EGFP pDNA (pEGFP-C1, Clontech) and stable transfectants were selected with 400 μg/mL of G-418 (Millipore). Green clones were selected by epifluorescence microscopy and tested for EGFP expression stability through several passages. […] All other EGFP-expressing cell lines were obtained in a similar way from parent non-EGFP-expressing cell lines.
Cells expressing EGFP were seeded in a 96 well plate the day before the experiment at a concentration of 50,000 cell/mL (100 μL/w) in DMEM+10% FBS+1% Gln-Abt. For robotic library screening, the delivery of Cas9-RNP against EGFP (RNP designed to knock-out the gene encoding for the enhanced green fluorescent protein (EGFP)) was performed. For RNP assembly, 9.2 μL of crRNA and 9.2 μL of tracrRNA were mixed in 211.6 μL of Nuclease-Free Duplex Buffer (IDT), incubated for 5 min at 95° C. and slowly cooled at rt (see I. Lostalé-Seijo, et al. Peptide/Cas9 nanostructures for ribonucleoprotein cell membrane transport and gene edition, Chem. Sci., 2017). Cas9 protein was dissolved in DMEM at a final concentration of 4 μM and equal volumes of the RNA complex and Cas9 were mixed and incubated for 5 min at rt. 75 μL of the corresponding amphiphile concentrations were added to 5 μL of RNP at 2 μM. The mixture was shaken for 30 min at room temperature before the addition to the cells. The cell medium was aspirated, and cells were washed twice with PBS. Cells were covered with 30 μL of DMEM and 20 μL of the RNP/amphiphile complexes were added to the cells (final peptide concentrations=2.5, 5 and 10 μM; final Cas9-RNP concentration=50 nM) and incubated for 4 h. After the incubation, the medium was replaced by 100 μL of fresh DMEM supplemented with 10% FBS. The total EGFP fluorescence was quantified after 72 h in a plate reader (FIG. 2, Table 1 (right) and Table 6). All experiments were done in triplicate. […]
Tables 26-31 show the mean (triplicates) percentage of gene editing, accounted by GFP fluorescence intensity decrease (% of reduction), measured after the transfection of Cas9-RNP by different amphiphiles at different concentrations in a variety of cell lines. Background values, accounted by untreated control cells, were subtracted for processing.

CCCC/C=C\CCCCCCCC=NNC(=O)CCCC(=O)NCCCC[C@H](NC(=O)[C@H](CCCCNC(=O)CCCC(=O)NN=CCCCCCCC/C=C\CCCC)NC(=O)[C@H](CCCNC(=N)N)NC(=O)[C@H](Cc1c[nH]cn1)NC(=O)[C@H](CCCCNC(=O)CCCC(=O)NN=CCCCCCCC/C=C\CCCC)NC(=O)[C@H](CCCNC(=N)N)NC(C)=O)C(=O)N[C@@H](Cc1c[nH]cn1)C(N)=O [7.3(Leu-His) M] (Ac-RK([Glutaryl-X1])HRK([Glutaryl-X1])K([Glutaryl-X1])H-NH2)
transfection efficiency relative to Lipofectamine 2000 (LF) [1]: two times better | transfection efficiency relative to TransIT-LT1 Transfection Reagent (Mirus) [1]: up to five times better

Ac-RK*LRRK*LRK*-NH2 (Ac-RK(NHNH2)LRRK(NHNH2)LRK(NHNH2)-NH2; not fully specified; printed as Ac-RK*LRRK*LRK*-NH2; also: K*2,K*6,K*9: native or modified lysine (ε-amide to a linker)) [Peptide 9.3]
mean fluorescence intensity (EGFP mRNA) (HCT116 cells; Dodecanal, 5 μM): 526 | mean fluorescence intensity (EGFP mRNA) (HCT116 cells; Myristoleyl, 2.5 μM): 2151 | mean fluorescence intensity (EGFP mRNA) (HCT116 cells; Oleyl, 2.5 μM): 1067 | mean fluorescence intensity (EGFP mRNA) (HCT116 cells; Oleyl, 5 μM): 910 | mean fluorescence intensity (EGFP mRNA) (HCT116 cells; Oleyl, 10 μM): 1044 | mean fluorescence intensity (EGFP mRNA) (HCT116 cells; Petroselinyl, 5 μM): 919 | mean fluorescence intensity (EGFP mRNA) (HCT116 cells; Petroselinyl, 10 μM): 1252 | percentage of gene editing, GFP fluorescence intensity decrease (% of reduction) ([2]; Dodecanal, 10 μM): −29% | percentage of gene editing, GFP fluorescence intensity decrease (% of reduction) ([2]; Dodecanal, 15 μM): −26% | percentage of gene editing, GFP fluorescence intensity decrease (% of reduction) ([2]; Myristoleyl, 10 μM): −5% | percentage of gene editing, GFP fluorescence intensity decrease (% of reduction) ([2]; Oleyl, 5 μM): −10% | percentage of gene editing, GFP fluorescence intensity decrease (% of reduction) ([2]; Oleyl, 10 μM): 3% | percentage of gene editing, GFP fluorescence intensity decrease (% of reduction) ([2]; Petroselinyl, 5 μM): −24% | percentage of gene editing, GFP fluorescence intensity decrease (% of reduction) ([2]; Petroselinyl, 10 μM): −19%

Ac-RK*LRRLLRK*-NH2 (Ac-RK(NHNH2)LRRLLRK(NHNH2)-NH2; not fully specified; printed as Ac-RK*LRRLLRK*-NH2; also: K*2,K*9: native or modified lysine (ε-amide to a linker)) [Peptide 9.2]
mean fluorescence intensity (EGFP mRNA) (HCT116 cells; Dodecanal, 5 μM): 438 | mean fluorescence intensity (EGFP mRNA) (HCT116 cells; Myristoleyl, 2.5 μM): 1498 | mean fluorescence intensity (EGFP mRNA) (HCT116 cells; Petroselinyl, 5 μM): 662 | percentage of gene editing, GFP fluorescence intensity decrease (% of reduction) ([2]; Dodecanal, 10 μM): −35% | percentage of gene editing, GFP fluorescence intensity decrease (% of reduction) ([2]; Dodecanal, 15 μM): −35% | percentage of gene editing, GFP fluorescence intensity decrease (% of reduction) ([2]; Myristoleyl, 10 μM): −17%

Ac-RRHK*RLK*RRLK*RL-NH2 (Ac-RRHK(NHNH2)RLK(NHNH2)RRLK(NHNH2)RL-NH2; not fully specified; printed as Ac-RRHK*RLK*RRLK*RL-NH2; also: K*4,K*7,K*11: native or modified lysine (ε-amide to a linker)) [13(Leu-His)]
mean fluorescence intensity (EGFP mRNA) (HCT116 cells; Myristoleyl, 2.5 μM): 2385 | mean fluorescence intensity (EGFP mRNA) (HCT116 cells; Palmitoleyl, 5 μM): 642 | mean fluorescence intensity (EGFP mRNA) (HCT116 cells; Petroselinyl, 5 μM): 428 | mean fluorescence intensity (EGFP mRNA) (HCT116 cells; Petroselinyl, 10 μM): 149 | percentage of gene editing, GFP fluorescence intensity decrease (% of reduction) ([2]; Dodecanal, 10 μM): −37% | percentage of gene editing, GFP fluorescence intensity decrease (% of reduction) ([2]; Myristoleyl, 10 μM): 11% | percentage of gene editing, GFP fluorescence intensity decrease (% of reduction) ([2]; Oleyl, 15 μM): −22% | percentage of gene editing, GFP fluorescence intensity decrease (% of reduction) ([2]; Palmitoleyl, 5 μM): −36% | percentage of gene editing, GFP fluorescence intensity decrease (% of reduction) ([2]; Palmitoleyl, 10 μM): 8% | percentage of gene editing, GFP fluorescence intensity decrease (% of reduction) ([2]; Palmitoleyl, 15 μM): 13% | percentage of gene editing, GFP fluorescence intensity decrease (% of reduction) ([2]; Petroselinyl, 5 μM): −7% | percentage of gene editing, GFP fluorescence intensity decrease (% of reduction) ([2]; Petroselinyl, 10 μM): 9% | percentage of gene editing, GFP fluorescence intensity decrease (% of reduction) ([2]; Petroselinyl, 15 μM): 14%

Ac-RRLK*RLK*RRLK*RL-NH2 [Peptide 13.3]
mean fluorescence intensity (EGFP mRNA) (HCT116 cells; Myristoleyl, 2.5 μM): 2744 | mean fluorescence intensity (EGFP mRNA) (HCT116 cells; Palmitoleyl, 2.5 μM): 1623 | mean fluorescence intensity (EGFP mRNA) (HCT116 cells; Petroselinyl, 2.5 μM): 1178 | mean fluorescence intensity (EGFP mRNA) (HCT116 cells; Petroselinyl, 5 μM): 1100 | mean fluorescence intensity (EGFP mRNA) (HCT116 cells; Petroselinyl, 10 μM): 824 | percentage of gene editing, GFP fluorescence intensity decrease (% of reduction) ([2]; Dodecanal, 5 μM): −27% | percentage of gene editing, GFP fluorescence intensity decrease (% of reduction) ([2]; Dodecanal, 10 μM): −11% | percentage of gene editing, GFP fluorescence intensity decrease (% of reduction) ([2]; Myristoleyl, 5 μM): −22% | percentage of gene editing, GFP fluorescence intensity decrease (% of reduction) ([2]; Myristoleyl, 10 μM): 3% | percentage of gene editing, GFP fluorescence intensity decrease (% of reduction) ([2]; Palmitoleyl, 5 μM): −30% | percentage of gene editing, GFP fluorescence intensity decrease (% of reduction) ([2]; Palmitoleyl, 10 μM): −19% | percentage of gene editing, GFP fluorescence intensity decrease (% of reduction) ([2]; Petroselinyl, 5 μM): −20%

Ac-RRLK*RLLRRLK*RLK*RRL-NH2 (Ac-RRLK(NHNH2)RLLRRLK(NHNH2)RLK(NHNH2)RRL-NH2; not fully specified; printed as Ac-RRLK*RLLRRLK*RLK*RRL-NH2; also: K*4,K*11,K*14: native or modified lysine (ε-amide to a linker)) [Peptide 17.3]
mean fluorescence intensity (EGFP mRNA) (HCT116 cells; Dodecanal, 5 μM): 130 | mean fluorescence intensity (EGFP mRNA) (HCT116 cells; Dodecanal, 10 μM): 312 | mean fluorescence intensity (EGFP mRNA) (HCT116 cells; Myristoleyl, 2.5 μM): 570 | mean fluorescence intensity (EGFP mRNA) (HCT116 cells; Myristoleyl, 5 μM): 247 | mean fluorescence intensity (EGFP mRNA) (HCT116 cells; Petroselinyl, 2.5 μM): 373 | mean fluorescence intensity (EGFP mRNA) (HCT116 cells; Petroselinyl, 5 μM): 168 | mean fluorescence intensity (EGFP mRNA) (HCT116 cells; Petroselinyl, 10 μM): 66 | percentage of gene editing, GFP fluorescence intensity decrease (% of reduction) ([2]; Myristoleyl, 5 μM): 6% | percentage of gene editing, GFP fluorescence intensity decrease (% of reduction) ([2]; Myristoleyl, 10 μM): 38% | percentage of gene editing, GFP fluorescence intensity decrease (% of reduction) ([2]; Palmitoleyl, 5 μM): −2% | percentage of gene editing, GFP fluorescence intensity decrease (% of reduction) ([2]; Palmitoleyl, 10 μM): 31% | percentage of gene editing, GFP fluorescence intensity decrease (% of reduction) ([2]; Palmitoleyl, 15 μM): 31% | percentage of gene editing, GFP fluorescence intensity decrease (% of reduction) ([2]; Petroselinyl, 5 μM): −2% | percentage of gene editing, GFP fluorescence intensity decrease (% of reduction) ([2]; Petroselinyl, 10 μM): 39% | percentage of gene editing, GFP fluorescence intensity decrease (% of reduction) ([2]; Petroselinyl, 15 μM): 35%

— patent publication US20250304623A1, “PEPTIDES FOR INTRACELLULAR DELIVERY” (UNIVERSIDADE DE SANTIAGO DE COMPOSTELA, priority 2022, published 2025)
